Among the data in PubChem BioAssay AID330 (DTP/NCI, 2004) are T/C values, retold here.

Several values for one entry are separate records, joined by “and”; a condition that tells them apart may be missing. Identical values can stand only once. Toxic doses and inconclusive results are not listed.

In this assay the test system is P388 leukemia ip, CD2F1 mice, survival T/C. Put plainly: NCI In Vivo Anticancer Drug Screen. Data for tumor model P388 Leukemia (intraperitoneal) in CD2F1 (CDF1) mice. The note with it: endpoint: median survival time, higher = longer survival. In outline:
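Mice carrying the transplanted tumor received test compound or vehicle. Survival was recorded in each group, and the value is the treated-group measurement divided by that of the vehicle-treated control group.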

The mark [1] stands for this setting: dose: 100.0 mg/kg/injection, schedule: Q04DX003 (ip), vehicle: saline with Tween-80.
Setting [2] is: dose: 200.0 mg/kg/injection, schedule: Q04DX003 (ip), vehicle: saline with Tween-80.
The mark [3] stands for this setting: dose: 25.0 mg/kg/injection, schedule: Q01DX005 (ip), vehicle: Klucel (hydroxypropylcellulose) (HPC).
The mark [4] stands for this setting: dose: 50.0 mg/kg/injection, schedule: Q01DX005 (ip), vehicle: Klucel (hydroxypropylcellulose) (HPC).
The mark [5] stands for this setting: dose: 100.0 mg/kg/injection, schedule: Q01DX005 (ip), vehicle: Klucel (hydroxypropylcellulose) (HPC).
Setting [6] is: dose: 200.0 mg/kg/injection, schedule: Q01DX005 (ip), vehicle: Klucel (hydroxypropylcellulose) (HPC).
[7] abbreviates: dose: 100.0 mg/kg/injection, schedule: Q01DX001 (ip), vehicle: Klucel (hydroxypropylcellulose) (HPC).
Setting [8] is: dose: 200.0 mg/kg/injection, schedule: Q01DX001 (ip), vehicle: Klucel (hydroxypropylcellulose) (HPC).
[9] abbreviates: dose: 400.0 mg/kg/injection, schedule: Q01DX001 (ip), vehicle: Klucel (hydroxypropylcellulose) (HPC).

For the compound `Cc1ccc(C)c(C(O)C2CC2)c1` (stereo not given), the T/C was 100 % of control under setting [1] and 104 % of control under setting [2].
Take `O=C(Nc1ccc(C2=NCCCN2)cc1)c1ccc(C(=O)Nc2ccc(C3=NCCCN3)cc2)cc1`: the T/C (dose: 1.25 mg/kg/injection, schedule: Q04DX003 (ip), vehicle: saline with Tween-80) is 100 % of control; the T/C (dose: 2.5 mg/kg/injection, schedule: Q04DX003 (ip), vehicle: saline with Tween-80) is 113 % of control; the T/C (dose: 5.0 mg/kg/injection, schedule: Q01DX009 (ip), vehicle: saline) is 300 % of control; the T/C (dose: 10.8 mg/kg/injection, schedule: Q04DX003 (ip), vehicle: Klucel (hydroxypropylcellulose) (HPC)) was 151 % of control; the T/C (dose: 12.0 mg/kg/injection, schedule: Q04DX003 (ip), vehicle: Klucel (hydroxypropylcellulose) (HPC)) was 151 % of control; the T/C (dose: 18.0 mg/kg/injection, schedule: Q04DX003 (ip), vehicle: Klucel (hydroxypropylcellulose) (HPC)) is 165 % of control and 186 % of control and 198 % of control. The T/C by setting is: (dose: 20.0 mg/kg/injection, schedule: Q01DX009 (ip), vehicle: saline) 100 % of control; (dose: 20.0 mg/kg/injection, schedule: Q04DX003 (ip), vehicle: Klucel (hydroxypropylcellulose) (HPC)) 185 % of control; (dose: 20.0 mg/kg/injection, schedule: Q04DX003 (ip), vehicle: saline with Tween-80) 204 % of control; (dose: 30.0 mg/kg/injection, schedule: Q04DX003 (ip), vehicle: Klucel (hydroxypropylcellulose) (HPC)) 201 % of control; (dose: 33.3 mg/kg/injection, schedule: Q04DX003 (ip), vehicle: Klucel (hydroxypropylcellulose) (HPC)) 250 % of control; (dose: 50.0 mg/kg/injection, schedule: Q04DX003 (ip), vehicle: Klucel (hydroxypropylcellulose) (HPC)) 91 % of control.
Take `O=C(c1ccccc1)c1c(-c2ccccc2)c(C(=O)c2ccccc2)n2ccccc12`: the T/C (dose: 50.0 mg/kg/injection, schedule: Q01DX009 (ip), vehicle: Klucel (hydroxypropylcellulose) (HPC)) is 108 % of control; the T/C (dose: 100.0 mg/kg/injection, schedule: Q01DX009 (ip), vehicle: Klucel (hydroxypropylcellulose) (HPC)) was 105 % of control; the T/C (dose: 200.0 mg/kg/injection, schedule: Q01DX009 (ip), vehicle: Klucel (hydroxypropylcellulose) (HPC)) is 93 % of control.
On to `Clc1nc(C(Cl)Cl)nc2sc3c(c12)CCCC3`, for which the T/C by setting is: (dose: 60.0 mg/kg/injection, schedule: Q01DX005 (ip), vehicle: saline with Tween-80) 98 % of control; (dose: 120.0 mg/kg/injection, schedule: Q01DX005 (ip), vehicle: saline with Tween-80) 94 % of control; (dose: 240.0 mg/kg/injection, schedule: Q01DX005 (ip), vehicle: saline with Tween-80) 96 % of control.
On to `CCOc1nc(N)nc(C)c1N=Nc1ccc(Cl)cc1`, for which the T/C runs as follows: (dose: 60.0 mg/kg/injection, schedule: Q01DX005 (ip), vehicle: Klucel + Tween-80) 100 % of control; (dose: 120.0 mg/kg/injection, schedule: Q01DX005 (ip), vehicle: Klucel + Tween-80) 101 % of control.
As to `Cc1cccc2c(=O)n(C(=O)c3ccccc3)c(N)nc12`, the T/C is 88 % of control (dose: 25.0 mg/kg/injection, schedule: Q01DX001 (ip), vehicle: saline with Tween-80); 90 % of control (dose: 50.0 mg/kg/injection, schedule: Q01DX001 (ip), vehicle: saline with Tween-80); 89 % of control (dose: 100.0 mg/kg/injection, schedule: Q01DX001 (ip), vehicle: saline with Tween-80); 93 % of control (dose: 200.0 mg/kg/injection, schedule: Q01DX001 (ip), vehicle: saline with Tween-80).
As for `Cn1c(=O)c2[nH]c(-n3ccc(=N)cc3)nc2n(C)c1=O`, the T/C is 103 % of control (dose: 100.0 mg/kg/injection, schedule: Q04DX003 (ip), vehicle: saline); 99 % of control (dose: 200.0 mg/kg/injection, schedule: Q04DX003 (ip), vehicle: saline); 99 % of control (dose: 400.0 mg/kg/injection, schedule: Q04DX003 (ip), vehicle: saline).
`CCCN(CCC)CC(O)c1cc2cc(C(F)(F)F)cc(C(F)(F)F)c2c2cc(Cl)c(Cl)cc12` (stereo not given): the T/C reads like this: (dose: 6.25 mg/kg/injection, schedule: Q01DX009 (ip), vehicle: saline with Tween-80) 102 % of control; (dose: 12.5 mg/kg/injection, schedule: Q01DX009 (ip), vehicle: saline with Tween-80) 101 % of control; (dose: 25.0 mg/kg/injection, schedule: Q01DX009 (ip), vehicle: saline with Tween-80) 94 % of control; (dose: 100.0 mg/kg/injection, schedule: Q01DX009 (ip), vehicle: saline with Tween-80) 91 % of control; (dose: 200.0 mg/kg/injection, schedule: Q01DX009 (ip), vehicle: saline with Tween-80) 91 % of control.
Turning to `CN(C(=O)c1ccccc1)C1CCCC(=O)CC1` (stereo not given), the T/C was 105 % of control under setting [3], 100 % of control under setting [4], 99 % of control under setting [5] and 97 % of control under setting [6].
Turning to `Cc1ccc(S(=O)(=O)N/N=C/c2c(-c3ccccc3)nc3n2CCS3)cc1`, the T/C was 99 % of control under setting [7], 93 % of control under setting [8] and 94 % of control under setting [9].
With `C=C1C(=O)OC2C=C(C)CC3C=C(CCC=C(C)CCC12)C(=O)O3` (stereo not given), the T/C is 102 % of control (dose: 50.0 mg/kg/injection, schedule: Q04DX003 (ip), vehicle: saline with Tween-80); 104 % of control under setting [1]; 115 % of control under setting [2].
Regarding `CC(=O)C1=C(C(C)=O)C2(C)OC1(C)c1ccccc12`, the T/C is 107 % of control under setting [7], 104 % of control under setting [8] and 99 % of control under setting [9].
Take `COc1cc2c(c(OC)c1OC)-c1ccc(SC)c(=O)cc1C(NC(=O)COP(=O)(O)OCC(=O)NC1CCc3cc(OC)c(OC)c(OC)c3-c3ccc(SC)c(=O)cc31)CC2` (stereo not given): the T/C reads like this: (dose: 0.78 mg/kg/injection, schedule: Q01DX009 (ip), vehicle: water) 121 % of control; (dose: 1.56 mg/kg/injection, schedule: Q01DX009 (ip), vehicle: water) 114 % of control; (dose: 6.25 mg/kg/injection, schedule: Q01DX009 (ip), vehicle: water) 150 % of control.
As to `O=C1c2c3c(c4c(c2C(=O)c2c5c(c6c(c21)CCC6)CCC5)CCC4)CCC3`, the T/C by setting is: (dose: 10.0 mg/kg/injection, schedule: Q01DX009 (ip), vehicle: saline with Tween-80) 95 % of control; (dose: 20.0 mg/kg/injection, schedule: Q01DX009 (ip), vehicle: saline with Tween-80) 96 % of control; (dose: 40.0 mg/kg/injection, schedule: Q01DX009 (ip), vehicle: saline with Tween-80) 99 % of control.
For `CCOC(=O)CC(O)(c1ccc2c(c1)OCO2)c1cc(OC)c(OC)c(OC)c1` (stereo not given), the T/C reads like this: (dose: 12.5 mg/kg/injection, schedule: Q01DX005 (ip), vehicle: Klucel (hydroxypropylcellulose) (HPC)) 100 % of control; under setting [3], 94 % of control; under setting [4], 94 % of control; under setting [5], 89 % of control; under setting [6], 88 % of control.
Take `Cc1c2c(nn1C)CC(C)(C)OC2=O`: the T/C was 95 % of control under setting [7], 100 % of control under setting [8] and 101 % of control under setting [9].
Turning to `CC1=C(CO)C(=O)OC(C(C)C2CCC3C4CC5OC56C(O)CCC(=O)C6(C)C4CCC23C)C1` (stereo not given), the T/C is 95 % of control (dose: 11.15 mg/kg/injection, schedule: Q01DX009 (ip), vehicle: saline + alcohol); 99 % of control (dose: 22.3 mg/kg/injection, schedule: Q01DX009 (ip), vehicle: saline + alcohol); 101 % of control (dose: 44.6 mg/kg/injection, schedule: Q01DX009 (ip), vehicle: saline + alcohol).
On to `CCCCCCCCC(=O)N1SC(NC(=O)OC)=Nc2ccccc21`, for which the T/C by setting is: (dose: 50.0 mg/kg/injection, schedule: Q01DX005 (ip), vehicle: acetone) 98 % of control; (dose: 100.0 mg/kg/injection, schedule: Q01DX005 (ip), vehicle: acetone) 93 % of control; (dose: 200.0 mg/kg/injection, schedule: Q01DX005 (ip), vehicle: acetone) 111 % of control.
Regarding `Nc1c(Cl)cc(Cl)cc1Cl`, the T/C is, setting by setting: (dose: 100.0 mg/kg/injection, schedule: Q04DX003 (ip), vehicle: alcohol) 108 % of control; (dose: 200.0 mg/kg/injection, schedule: Q04DX003 (ip), vehicle: alcohol) 100 % of control; (dose: 400.0 mg/kg/injection, schedule: Q04DX003 (ip), vehicle: alcohol) 100 % of control.
